Measured values published in patent publication US20080241177A1 (priority 2003, published 2008).

What was measured:
serum antibodies [1] = assay: Immunization of sheep with the vaccine, anti-peptide ELISA; conditions: for Polyclonal sera with reactivity to peptide obtained from immunized sheep: 200 μg peptide mixture in CpG DNA adjuvant, prime and boost
PBMCs [2] = assay: (3H)-thymidine proliferation assay; type: cell-based, human; conditions: for stimulation index: 10 μg/ml peptide
Experimental: FIG. 4. Cell-mediated response to peptide 5 in trial subject 016, measured over the course of the vaccination schedule. Patient PBMCs were stimulated with 10 μg/ml peptide 5, incubated in vitro for 6 days, pulsed with ^3H-thymidine for 18 hours and then proliferation was assessed by ^3H-thymidine incorporation.
Peripheral blood mononuclear cells (PBMCs) were plated at a concentration of 1×10^5 cells/well for thymidine proliferation and ELISpot assays and at 1×10^6 cells/well (24 well plates) for the CFSE proliferation assay. ELISpot plates were coated with mouse anti-human IFN-γ antibody (Diaclone, France) and cells for CFSE assay were stained with 5 μM CFSE-FITC (Molecular Probes, Eugene, Oreg.). All PBMCs were in RPMI supplemented with 2 mM L-glutamine, 10 mM HEPES, 100 U/mL penicillin/streptomycin and 10% human AB serum (Australian Red Cross Blood Service).
The recall antigens CMV lysate, (1/2000 dilution; BioWhittaker, Walkersville, Md.) and tetanus toxoid (2.5 Lfu/ml; CSL) were also tested. PBMCs were incubated at 37° C. and 5% CO2 atmosphere for 20 hours (ELISpot) or 6 days (proliferation assays).
In the thymidine proliferation assay, cells were pulsed with 0.5 μCi/well [methyl-^3H]-thymidine (Amersham, Buckinghamshire, UK) and harvested 18 hours later. [^3H]-thymidine incorporation was measured by liquid scintillation counting. A sample was considered to be positive when the stimulation index^22 for each well in the quadruplicate sample exceeded the mean of unstimulated cells by at least three standard deviations.

serum antibodies [3] = assay: ELISA for serum antibodies specific for the individual vaccine peptides, human sera; conditions: for Number of individuals with a humoral response to the vaccine peptides, Normal controls n = 30 / Percent of individuals with a humoral response to the vaccine peptides, Normal controls n = 30: n = 30, not vaccinated
[4] = Delayed type hypersensitivity (DTH) testing; type: in vivo, human; conditions: for Induration area, DTH testing: 48 hours following intradermal injection of individual peptide, after four vaccinations; for Number of patients with a peptide-specific DTH response: six trial patients who underwent DTH testing
Experimental: Delayed type hypersensitivity (DTH) testing was carried out 1 month after the final vaccination. […] Induration of […]10 mm^2 at 48 hours after injection was considered positive.

PBMCs [5] = assay: CFSE proliferation assay; type: cell-based, human; conditions: subject 016, visit 5
[6] = patient 016, visit 5 (1 month after vaccination 4)
[7] = non-trial cancer controls, n = 54, sera 1:25 dilution
[8] = trial subjects who completed four vaccinations, n = 6, detectable response at any time point considered positive

Substance | Polyclonal sera with reactivity to peptide obtained from immunized sheep (serum antibodies [1]; two sheep) | stimulation index (PBMCs [2]; [6]) | Number of individuals with a humoral response to the vaccine peptides, Cancer controls n = 54 (serum antibodies [3]; [7]) | Number of individuals with a humoral response to the vaccine peptides, Normal controls n = 30 (serum antibodies [3]) | Percent of individuals with a humoral response to the vaccine peptides, Normal controls n = 30 (serum antibodies [3]) [%] | Number of individuals with a humoral response to the vaccine peptides, Trial subjects n = 6 (serum antibodies [3]; [8]) | Induration area, DTH testing ([4]; patient 012) | Induration area, DTH testing ([4]; patient 014) | Induration area, DTH testing ([4]; patient 015) | Induration area, DTH testing ([4]; patient 016) [mm^2] | Induration area, DTH testing ([4]; patient 017) [mm^2] | Induration area, DTH testing ([4]; patient 018) | Number of patients with a peptide-specific DTH response [4] | other results
H-LEWVGFIRSKAYGAATAYAASMKGRVTI-OH [Peptide 5, Heavy CDR2 of human anti-p53 antibody with central domain specificity] | obtained from both sheep | 22.2 | 3 | 2 | 6.7 | 2 | 165 mm^2 | 16 mm^2 | 24 mm^2 | 269 | 373 | 94 mm^2 | all six | Serum antibody titres, first versus second immunized sheep (serum antibodies [1]; two sheep): equivalent; stimulation index (PBMCs [2]; patient 016, visit 3 (1 month after vaccination 2)): 8.88; stimulation index (PBMCs [2]; patient 016, visit 4 (1 month after vaccination 3)): 64.6; First appearance of peptide-specific proliferative response (PBMCs [2]; patient 016, maximal after three vaccinations): visit 3; Percent of individuals with a humoral response to the vaccine peptides, Cancer controls n = 54 (serum antibodies [3]; [7]): 5.6%; Isotype of peptide-specific serum antibodies (serum antibodies [3]; subject 015): IgG3; Isotype of peptide-specific serum antibodies (serum antibodies [3]; subject 016): IgG3; Percent of individuals with a humoral response to the vaccine peptides, Trial subjects n = 6 (serum antibodies [3]; [8]): 33.3%; Number of individuals with a humoral response to the vaccine peptides, Trial subjects n = 6 (serum antibodies [3]; trial subjects who completed four vaccinations, n = 6, detectable response at any time point considered positive, listed as peptide 5): two; Specific proliferative response, % of circulating CD3 and CD4 positive cells (PBMCs [5]): 5.5%
H-LEWMGIINPSGGSANYAPKFKGRLTMS-OH [Peptide 1, Heavy CDR2 of human anti-p53 antibody with N-terminus specificity] | one animal did not respond | 10.4 | 0 | 3 | 10 | 0 | Neg (Neg indicates that induration (if any) was less than 10 mm^2) | Neg (Neg indicates that induration (if any) was less than 10 mm^2) | Neg (Neg indicates that induration (if any) was less than 10 mm^2) | 104 | 24 | Neg (Neg indicates that induration (if any) was less than 10 mm^2) | two | Response to peptide using the polyclonal sheep sera or rabbit sera (serum antibodies [1]; polyclonal sheep sera (FIG. 2A) or rabbit sera (data not shown)): positive responses; Number of individuals with a humoral response to the vaccine peptides, Trial subjects n = 6 (serum antibodies [3]; trial subjects who completed four vaccinations, n = 6, detectable response at any time point considered positive, listed as peptide 1): No patient demonstrated a response
